Experimental data: patent publication US20150083146A1, “PERSONAL VAPORIZER LIQUID FOR E[…]-SOLUBLE COMPOUNDS AND RESINS” (Verso PV, LLC, priority 2013, published 2015)
Structures can show the parent of a compound that is named as a salt.

Assays:
[1] = Emulsion stability (visual separation test; storage, sunlight, temperature); type: physicochemical; details: after mixing with heat and agitation; initial observation
Description: In some embodiments of the present invention, a stable emulsion containing oil-soluble compounds and/or resins in a liquid base is provided. The stable emulsion may be stored in a container suitable for delivery to a consumer. The stable emulsion may be provided in a vial, cartridge or other container. Preferably the container is air-tight. The stability of the emulsion may be measured or quantified by no visible separation after 30 days.
In this example, a series of liquid compositions were prepared and evaluated for their emulsion stability. Varying compositions were tested that utilized different lipid solubilizers (8 in total). The liquid base in these compositions was propylene glycol. Test samples (liquid compositions including cannabis extract) were subjected to a range of conditions: temperature, sunlight, extended storage, and varied ingredient concentration. Various types of cannabis extract were also tested. For each test sample, observations were noted about the color, viscosity, general visual appearance of each sample, and any changes seen over time.
Materials and Methods: Testing was performed in 20 ml glass scintillation vials. Mixing of the liquid base and lipid solubilizer was done entirely in borosilicate glassware, and ingredients were measured by mass using an AND EJ-610 balance. Samples were heated using a Scilogex MS7-H55O digitally controlled hot plate. Cannabis extract was produced using an Apeks closed-system solvent extractor running instrument grade propane. […]
Formula preparation: Formulas using lipid solubilizers were prepared in three concentrations: 0.1%, 0.5% and 1.0% by mass, in a solvent base of propylene glycol. […] Stock solutions were made of each of the eight lipid solubilizers at each of the three concentrations, producing a total of 24 different formulas at a quantity of approximately 500 ml each. […] After cooling the formula was ready for use. […]
Test Sample preparation: For each sample, the appropriate quantity of cannabis extract and liquid formula were added to a vial. […]

[2] = Viscosity rating of liquid compositions (cannabis extract emulsions in propylene glycol formulas); type: physicochemical; details: cannabis extract emulsion in propylene glycol
Description: The liquid composition comprising the oil-soluble compounds or resin should have a density and viscosity suitable for use in a personal vaporizer. […] For example, a liquid composition having a […] of about 100 cps, alternatively about 75 cps or less, alternatively about 50 cps or less, alternatively about 42 cps (the viscosity of propylene glycol) or more. The foregoing values can be combined to form a range. Viscosity values are determined at 25° C. using standard equipment for measuring viscosity of liquids.
Test Sample preparation: For each sample, the appropriate quantity of cannabis extract and liquid formula were added to a vial. The vial was placed on a hot plate at 85° C. until the extract melted. The vial was gently shaken to disperse the extract. Each of the formula recipes were tested with five concentrations of extract: 5%, 10%, 20%, 33%, and 50%, by mass. For example: to produce a 10% extract sample we placed 9.00 grams of one of the stock oil emulsifier formulas, and 1.00 grams of one of cannabis extracts in a 20 ml scintillation vial and applied heat. The components remained separate until heat and agitation are applied.
The viscosity of each sample is rated, in which “1” indicates lower viscosity, “2” indicates moderate viscosity, and “3” indicates higher viscosity.

Compound | formation of a stable emulsion [1] | viscosity (in words) [2]
CCCCCCCCCCCC(=O)OCC(O)CO (centres unmarked) [Monolaurin, Glyceryl Monolaurate] | effective and flavorless emulsifier | –
CCOC(=O)CC(O)(CC(=O)OCC)C(=O)OCC [triethyl citrate, Triethyl Citrate] | appeared to perform adequately | –
Propylene Glycol Monolaurate [PG-12] | – | most viscous
CC(=O)OCC(COC(C)=O)OC(C)=O [triacetin, Triacetin] | appeared to perform adequately | –
CCCCCCCC(=O)OCC(O)CO (centres unmarked) [MCM C8, Glyceryl Caprylate] | – | least viscosity
